{"source": "patent US20040248775A1", "about": "“Methods for screening inhibitors of apoptosis” (Wyeth, priority 2003, published 2004)", "origin": "cited, not measured here", "biological_target": "T1, Apaf-1 (Homo sapiens, UniProt O14727)", "T1 sequence (O14727 1-1248)": "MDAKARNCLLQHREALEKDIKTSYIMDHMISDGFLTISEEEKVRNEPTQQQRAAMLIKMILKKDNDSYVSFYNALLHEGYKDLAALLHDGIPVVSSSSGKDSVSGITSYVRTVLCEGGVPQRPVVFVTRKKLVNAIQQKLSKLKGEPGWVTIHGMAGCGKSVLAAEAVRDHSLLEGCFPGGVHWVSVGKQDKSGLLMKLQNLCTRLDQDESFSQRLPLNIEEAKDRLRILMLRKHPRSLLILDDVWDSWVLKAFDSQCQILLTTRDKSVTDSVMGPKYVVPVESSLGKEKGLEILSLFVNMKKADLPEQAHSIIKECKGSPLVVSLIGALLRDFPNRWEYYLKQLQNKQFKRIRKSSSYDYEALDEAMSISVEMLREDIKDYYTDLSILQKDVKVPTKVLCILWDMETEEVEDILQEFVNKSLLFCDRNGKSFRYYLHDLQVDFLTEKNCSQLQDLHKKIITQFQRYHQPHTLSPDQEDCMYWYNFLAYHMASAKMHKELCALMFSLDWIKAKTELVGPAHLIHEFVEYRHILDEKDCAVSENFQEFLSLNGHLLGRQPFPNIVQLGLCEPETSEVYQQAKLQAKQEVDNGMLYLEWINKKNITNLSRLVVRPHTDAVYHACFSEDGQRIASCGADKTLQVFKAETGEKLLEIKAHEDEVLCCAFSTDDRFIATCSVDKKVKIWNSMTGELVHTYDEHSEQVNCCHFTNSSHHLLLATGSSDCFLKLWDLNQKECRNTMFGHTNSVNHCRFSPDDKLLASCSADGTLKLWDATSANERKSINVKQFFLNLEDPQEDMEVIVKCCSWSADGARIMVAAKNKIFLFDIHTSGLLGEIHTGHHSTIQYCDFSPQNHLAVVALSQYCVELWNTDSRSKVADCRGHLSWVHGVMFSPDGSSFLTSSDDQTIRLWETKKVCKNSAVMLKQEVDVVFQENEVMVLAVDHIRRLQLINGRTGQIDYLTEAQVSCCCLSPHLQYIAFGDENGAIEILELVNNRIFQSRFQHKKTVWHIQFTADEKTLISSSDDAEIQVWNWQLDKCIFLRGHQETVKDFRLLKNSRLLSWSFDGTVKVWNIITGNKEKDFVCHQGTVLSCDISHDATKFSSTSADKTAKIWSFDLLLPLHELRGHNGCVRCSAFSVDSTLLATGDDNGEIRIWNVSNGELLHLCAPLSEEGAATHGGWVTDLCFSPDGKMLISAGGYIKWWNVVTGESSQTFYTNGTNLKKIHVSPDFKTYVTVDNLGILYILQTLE", "conditions": "Jiang et al., 2000; cited from earlier work", "data": [{"smiles": "Nc1ncnc2c1ncn2[C@H]1C[C@H](O)[C@@H](COP(=O)(O)OP(=O)(O)OP(=O)(O)O)O1", "note": "[dATP]", "values": [{"measurement": "affinity of purine nucleotides for Apaf-1", "value": "greatest affinity"}]}]}
